“Also recorded” adds a separate entry of the source. Read-outs that look alike come from different tables or passages of the source.
Key:
[1] = tested on: retina; experiment: Photopic electroretinogram (ERG) in VGB-treated mice; type: in vivo, BALB/c mice
Procedure: (§1) ERG were recorded as described previously after the last VGB injection (Duboc et al., 2004). Anesthesia was induced by an intramuscular injection of a solution containing ketamine (100 mg/kg) and xylazine (10 mg/kg). After 10 min adaptation to a […] light intensity, ten recordings were obtained with flash intensity of 10 cdsm^-2 at an interstimulus interval 30s and subsequently averaged. These photopic ERG measurements were performed after 59 days in rats and 29 days in mice.
(§2) Sabril IS Investigator and Peer Review Groups. Epilepsia Vol. 37, 638-642 (1996)).
(§3) Animals were light-adapted for 10 minutes with a background light of 25 cdm^-2. Light flashes were then applied on this background light; the light intensity of the flash was 10 cdsm^-2 for the mouse experiments and for the rats maintained in darkness (Figs. 2, 6) or 25 cdsm^-2 for other experiments (Figs 3, 5). Ten recordings were averaged with an interstimulus interval of 30s.

[2] = rats, VGB 65 days, versus control
Procedure: VGB was dissolved in 0.9 % NaCl at a concentration of 125 mg/ml. It was administered at 40 mg (125 mg/ml, 0.32 ml) by daily intraperitoneal injection for 45 or 65 days and at 3 mg (60 mg/ml, 0.05 ml) to mice for 29 days (daily dose of about 200 mg/kg in rats and 150 mg/kg in mice). Vitamin B6 (active form) was administered at a dose of 1 mM/kg (solution 154,46 mg/ml) whereas taurine was provided in the drinking water at 0,1 mol/l.
After 65 days of injection, rats were anesthetized for blood sampling. Anesthesia was induced as described above. Under anesthesia an indwelling catheter was placed in the carotid artery. This method allowed obtaining a single, large, good quality blood sample. A 1 mL blood sampling was taken for each rat in a heparinized blood sampler, immediately centrifuged and frozen at -80°C. Automated amino acid ion chromatography (Pasteur Cerba, France) was used for the quantitative determination of total and free amino acids in the samples.
VGB dissolved in 0.9% NaCl was administered at 40mg (125 mg/ml, 0.32ml) to rats by daily intraperitoneal injection for 45 or 65 days and at 3mg (60mg/ml, 0.05ml) to mice for 29 days. […] Taurine supplementation was given in drinking water at a concentration of 0.1M.

[3] = rats (Sills GJ. et al. 2001); cited from earlier work
[4] = tested on: retinal ganglion cells; settings: young rats, VGB 0.6 mg/day i.p. 25 days, versus control
Procedure: Animal treatments: Breeds of Wistar rats Rj Wi IOPS Han were purchased from Janvier (Le Genest-St-lsle, France). VGB dissolved in 0.9% NaCl was administered at 0.6mg/jour (6 mg/ml, 0.1ml) to rats by daily intraperitoneal injection for 25 days from age 4 days.
Histology: Animals were anesthetized by intraperitoneal injection (0.8 to 1.2 ml/kg) of a solution containing ketamine (40 mg/ml) and xylazine (4 mg/ml Rompum). They were then perfused first with heaparin 1000Ul/ml in saline solution (0.9% NaCl), then with fixative containing 4% Paraformaldehyde (Merck chemicals ref. : 100496 ) and 0.2% glutaraldehyde (fluka 25%). Eye cups were isolated and fixed overnight at 4°C in 4% (wt/vol) paraformaldehyde in phosphate buffered saline (PBS; 0.01 M, pH 7.4). The tissue was cryoprotected in successive solutions of PBS containing 10%, 20% and 30% sucrose at 4°C, oriented along the dorso-ventral axis and embedded in OCT (Labonord, Villeneuve d'Ascq, France). […]
For quantification, vertical sections along the dorso-ventral axis were selected at the optic nerve. Brn3A -positive retinal ganglion cells were quantified along the complete retinal section. […]

[5] = tested on: retina; design: species or system Wistar rats Rj Wi IOPS Han; settings: rat, in vivo
Procedure: as §1, §2, §3

[6] = tested on: GABA; settings: rats (Neal MJ. et al. 1989; Cubells JF. et al. 1987); cited from earlier work
[7] = tested on: cone photoreceptors; experiment: Retinal histology quantification in VGB-treated rats (cone arrestin, GFAP); type: in vivo, Wistar rats Rj Wi IOPS Han
Procedure: (§4) Sabril IS Investigator and Peer Review Groups. Epilepsia Vol. 37, 638-642 (1996)). […] The primary antibody added to the solution was incubated for two hours at room temperature. Polyclonal antibodies were directed against VGluT1 (1:2000, Chemicon), rabbit GFAP (1/400, Dako, USA) and mouse cone arrestin (Zhu, X., et al. Mouse cone arrestin expression pattern: light induced translocation in cone photoreceptors. Molecular vision Vol. 8, 462-471 (2002)) (Luminaire junior, LUMIj, 1:20,000). Monoclonal antibodies were directed against Goα (1:2000, Chemicon). […] Inner/outer segments of cone photoreceptors were stained with a peanut lectin (PNA, Sigma) during 12 hours of incubation at 4°C. The dye, diamidiphenyl-indole (DAPI), was added during the final incubation period. […] Following DAPI nuclear staining, the lengths of disorganised retinal areas were measured; GFAP immunostaining was used for detection and quantificationof retinal areas with reactive gliosis. The cone photoreceptor density was calculated following cone arrestin immunostaining (rats) or PNA labelling (mice) to visualise the inner/outer segments of cone photoreceptors; areas with disorganised retinal layering were excluded. Areas with sprouting bipolar cells were quantified following immunolabelling of these cells with the antibody directed against the protein Goα.

[8] = tested on: cone photoreceptors; experiment: Retinal histology quantification in VGB-treated mice (DAPI, PNA, Goα); type: in vivo, BALB/c mice
Procedure: as §4

[9] = VGB plus taurine versus VGB alone, p<0.001

**Q.** With `Cc1ncc(COP(=O)(O)O)c(C=O)c1O` [vitamin B6, pyridoxal-5'-phosphate] as the compound, how does the “photopic ERG amplitude” value ([1]; mice, VGB plus vitamin B6 (active form) 1 mM/kg (Fig. 1B)) read?
**A.** Its value is “smaller decrease in photopic ERG than with vigabatrin alone; also recorded: reduced the decrease in photopic ERG amplitude”.

**Q.** With `C=CC(N)CCC(=O)O` (stereo not drawn) [VGB, 4-amino-5-hexenoic acid] as the compound, how does the “decrease of taurine level in vigabatrin-treated animals” value ([2]; p<0.05) read?
**A.** Its value is 67%.

**Q.** What about the “difference (reduction) for methionine” value ([2]; significant) of the same compound?
**A.** The value was 22%.

**Q.** What about the “reduction of glutamic acid in the blood sample” value ([2]; statistically significant) of the same compound?
**A.** The value was 56%.

**Q.** What about the “concentration in the retina relative to the brain” value [3] of the same compound?
**A.** The value was “five-fold higher”.

**Q.** What about the “decrease of the number of retinal ganglion cells” value [4] of the same compound?
**A.** Its value is 56%.

**Q.** What about the “photopic ERG amplitude” value [5] of the same compound?
**A.** Its value is “induced a decrease in the photopic electroretinogram (ERG) measurement”.

**Q.** And the “GABA concentrations in the brain relative to control rats” value [6]?
**A.** The value was “two-fold higher”.

**Q.** And the “GABA concentrations in the retina relative to control rats” value [6]?
**A.** The value was “five-fold higher”.

**Q.** And the GFAP immunostaining ([7]; VGB alone)?
**A.** Its GFAP immunostaining is “increase in GFAP immunostaining”.

**Q.** What about the “sprouting of bipolar cell dendrites” value ([8]; VGB alone) of the same compound?
**A.** The value was “observed in VGB-treated mice”.

**Q.** What about the “density of cone outer and inner segments” value ([8]; VGB alone versus control, p<0.001 (Fig. 4C)) of the same compound?
**A.** The value was “lower densities”.

**Q.** With `NCCS(=O)(=O)O` [taurine, 2-aminoethanesulfonic acid] as the compound, how does the “photopic ERG amplitude” value ([1]; mouse, in vivo) read?
**A.** The value was “the difference was no longer statistically significant between controls and vigabatrin plus taurine supplementation”.

**Q.** What about the GFAP immunostaining [7, 9] of the same compound?
**A.** Its GFAP immunostaining is “less extensive in animals receiving taurine supplementation than in animals without supplementation”.

**Q.** And the cone segment density ([7]; VGB plus taurine versus VGB alone, p<0.05, remained lower than control)?
**A.** The cone segment density was “greater in the VGB-treated group with taurine supplementation than in animals without supplementation”.

**Q.** What about the “sprouting of bipolar cell dendrites” value ([8]; VGB plus taurine) of the same compound?
**A.** The value was “completely suppressed”.

**Q.** What about the cone density [8, 9] of the same compound?
**A.** The cone density was “prevented this decrease in cone density”.

**Q.** What about the “disorganisation of the outer nuclear layer (areas of retinal disorganisation)” value ([8]; VGB plus taurine versus VGB alone, p<0.001 (Fig. 4B)) of the same compound?
**A.** The value was “smaller areas of retinal disorganisation than mice without supplementation”.
